Experimental data published in patent publication US20020026053A1, “Novel 3-(substituted) -2- indolinones compounds and use thereof as inhibitors of protein kinase activity” (priority 1997, published 2002).

The compounds below were run against T1, EGFR (Homo sapiens, UniProt P00533) (assay: Biochemical EGFR Assay).
T1 construct: endogenous in cells; host or cells: A431 cells (lysate, captured with SUMO1 anti-EGFR antibody)
Design: concentration or dose not given beside the values
Experimental: This assay measures the in vitro kinase activity of EGFR using ELISA.
1. Corning 96-well Elisa plates (Corning Catalog No. 25805-96).
2. SUMO1 monoclonal anti-EGFR antibody (Biochemistry Lab, SUGEN, Inc.).
3. PBS (Dulbecco's Phosphate-Buffered Saline, Gibco Catalog No. 450-1300EB).
6. A431 cell lysate (Screening Lab, SUGEN, Inc.)
9. Adenosine-5′-triphosphate (ATP, from Equine muscle, Sigma Cat. No. A-5394).
Prepare a 1.0 mM solution in dH2O. This reagent should be made up immediately prior to use and kept on ice.
Prepare a 1.0 M stock solution in dH2O.
11. ATP/MnCl2 phosphorylation mix
This reagent should be prepared immediately before use and kept on ice
12. NUNC 96-well V bottom polypropylene plates (Applied Scientific Cat. No. AS-72092).
13. Ethylenediaminetetraacetic acid (EDTA)
Prepare 200 mM working solution in dH2O. Adjust to pH 8.0 with 10 N NaOH.
14. Rabbit polyclonal anti-phosphotyrosine serum (Biochemistry Lab, SUGEN, Inc.)
15. Goat anti-rabbit IgG peroxidase conjugate (Biosource Cat. No. ALI0404)
16. ABTS (2,2′-azino-bis(3-ethylbenzthiazoline-6-sulfonic acid), Sigma Cat. No. A-1888).
Mix first two ingredients in about 900 ml dH2O, adjust pH to 4.0 with phosphoric acid. Add ABTS, cover, let sit about 0.5 hr., filter. The solution should be kept in the dark at 4° C. until ready to use.
17. Hydrogen peroxide 30% solution (Fisher Cat. No. H325)
Mix 15 ml ABTS solution and 2.0 μl H2O2. Prepare 5 minutes before use.
1. Coat Corning 96 well ELISA plates with 0.5 μg SUMO1 in 100 μl PBS per well, store overnight at 4° C.
2. Remove unbound SUMO1 from wells by inverting plate to remove liquid. Wash 1× with dH2O. Pat the plate on a paper towel to remove excess liquid.
3. Add 150 μl of Blocking Buffer to each well. Incubate for 30 min. at room temperature with shaking.
4. Wash plate 3× with deionized water, then once with TBST. Pat plate on a paper towel to remove excess liquid and bubbles.
5. Dilute lysate in PBS (7 μg lysate/100 μl PBS)
6. Add 100 μl of diluted lysate to each well. Shake at room temperature for 60 min.
7. Wash plates as described in 4, above.
8. Add 120 μl TBS to ELISA plate containing captured EGFR.
9. Dilute test compound 1:10 in TBS in 96-well polypropylene plates (ie. 10 μl compound+90 μl TBS).
10. Add 13.5 μl diluted test compound to ELISA plate.
11. Incubate for 30 minutes while shaking at room temperature.
13. After 5 minutes, stop reaction by adding 16.5 μl of 200 mM EDTA (pH 8.0) to each well, shaking continuously. After the EDTA has been added, shake for 1 min.
14. Wash 4× with deionized water, twice with TBST.
15. Add 100 μl anti-phosphotyrosine (1:3000 dilution in TBST) per well. Incubate 30-45 min. at room temperature, with shaking.
16. Wash as described in 4, above.
17. Add 100 μl Biosource Goat anti-rabbit IgG peroxidase conjugate (1:2000 dilution in TBST) to each well. Incubate 30 min. at room temperature, with shaking.
18. Wash as described in 4, above.
19. Add 100 μl of ABTS/H2O2 solution to each well.
20. Incubate 5 to 10 minutes with shaking. Remove any bubbles.
21. If necessary stop reaction with the addition of 100 μl 0.2 M HCl per well.
22. Read assay on Dynatech MR7000 ELISA reader. Test Filter: 410 nM Reference Filter: 630 nM

T1 sequence (P00533 25-1210): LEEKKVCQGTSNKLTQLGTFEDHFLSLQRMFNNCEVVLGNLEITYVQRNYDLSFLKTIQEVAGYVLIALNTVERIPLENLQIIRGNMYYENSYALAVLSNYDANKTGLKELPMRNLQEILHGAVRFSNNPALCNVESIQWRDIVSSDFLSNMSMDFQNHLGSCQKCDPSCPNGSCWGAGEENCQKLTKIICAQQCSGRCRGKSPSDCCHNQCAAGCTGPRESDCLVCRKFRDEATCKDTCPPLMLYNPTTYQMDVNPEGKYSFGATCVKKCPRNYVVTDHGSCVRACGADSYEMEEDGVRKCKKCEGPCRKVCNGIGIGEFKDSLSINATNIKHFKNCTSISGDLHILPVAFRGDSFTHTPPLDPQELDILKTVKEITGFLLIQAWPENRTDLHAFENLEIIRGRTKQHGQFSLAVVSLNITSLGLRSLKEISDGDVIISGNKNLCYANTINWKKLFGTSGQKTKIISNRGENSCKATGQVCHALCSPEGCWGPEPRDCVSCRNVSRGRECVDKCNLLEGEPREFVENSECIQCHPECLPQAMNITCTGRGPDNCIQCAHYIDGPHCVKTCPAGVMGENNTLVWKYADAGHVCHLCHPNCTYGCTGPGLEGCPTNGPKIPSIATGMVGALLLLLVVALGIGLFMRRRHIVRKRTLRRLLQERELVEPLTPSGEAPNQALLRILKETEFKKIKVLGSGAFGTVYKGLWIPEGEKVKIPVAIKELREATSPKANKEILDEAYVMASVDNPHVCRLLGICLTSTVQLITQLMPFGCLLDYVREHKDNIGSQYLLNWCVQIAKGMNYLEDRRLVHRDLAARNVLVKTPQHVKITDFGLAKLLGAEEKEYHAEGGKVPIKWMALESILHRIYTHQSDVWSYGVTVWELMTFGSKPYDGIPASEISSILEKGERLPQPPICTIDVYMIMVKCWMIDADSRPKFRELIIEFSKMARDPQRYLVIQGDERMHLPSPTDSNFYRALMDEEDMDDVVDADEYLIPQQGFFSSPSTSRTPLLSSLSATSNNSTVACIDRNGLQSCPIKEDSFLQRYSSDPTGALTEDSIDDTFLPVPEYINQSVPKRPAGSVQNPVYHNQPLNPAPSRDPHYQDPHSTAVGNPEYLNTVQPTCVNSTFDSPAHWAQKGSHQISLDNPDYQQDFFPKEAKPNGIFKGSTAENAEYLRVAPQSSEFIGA

SMILES	Biochem EGFR % Inhibition (P.167)
CCOC(=O)c1c(C)[nH]c(C=C2C(=O)Nc3c(Br)cc(Br)c(C)c32)c1C [10718/H02]	−22.5%
COc1cc(Br)c(O)c(C=C2C(=O)Nc3c(Br)cc(Br)c(C)c32)c1 [10718/H03]	33.2%
Cc1c(Br)cc(Br)c2c1C(=Cc1ccc3ccccc3c1O)C(=O)N2 [10718/H04]	13.7%
CCOC(=O)CCc1c(C(=O)OCC)[nH]c(C=C2C(=O)Nc3c(Br)cc(Br)c(C)c32)c1CC(=O)OCC [10718/H05]	0.2%
CCOC(=O)c1cc(C=C2C(=O)Nc3c(Br)cc(Br)c(C)c32)oc1C [10718/H06]	−5.1%
COC(=O)c1[nH]c(C)c(C=C2C(=O)Nc3c(Br)cc(Br)c(C)c32)c1C(=O)OC [10718/H07]	−12.0%
Cc1c(Br)cc(Br)c2c1C(=Cc1ccc(Cl)c([N+](=O)[O-])c1)C(=O)N2 [10718/H08]	−2.5%
CCOc1cccc(C=C2C(=O)Nc3c(Br)cc(Br)cc32)c1O [10734/A02]	0.0%
O=C1Nc2c(Br)cc(Br)cc2C1=Cc1cc(Cl)cc(Cl)c1O [10734/A03]	18.5%
O=C1Nc2c(Br)cc(Br)cc2C1=Cc1cc(Cl)ccc1O [10734/A04]	11.4%
CCN(CC)c1ccc(C=C2C(=O)Nc3c(Br)cc(Br)cc32)c(O)c1 [10734/A05]	22.6%
O=C1Nc2c(Br)cc(Br)cc2C1=Cc1ccc([N+](=O)[O-])cc1 [10734/A06]	−6.4%
O=C1Nc2c(Br)cc(Br)cc2C1=Cc1cc(Br)cc(Br)c1O [10734/A07]	15.2%
O=C1Nc2c(Br)cc(Br)cc2C1=Cc1cccc(F)c1O [10734/A08]	6.8%
O=C1Nc2c(Br)cc(Br)cc2C1=Cc1ccc(O)c(Br)c1 [10734/A09]	27.3%
CC(C)(C)c1ccc(C=C2C(=O)Nc3c(Br)cc(Br)cc32)cc1 [10734/A10]	27.8%
O=C1Nc2c(Br)cc(Br)cc2C1=Cc1ccc(Br)s1 [10734/A11]	12.5%
CCOc1cccc(C=C2C(=O)Nc3ccc(I)cc32)c1O [10734/B02]	−8.9%
O=C1Nc2ccc(I)cc2C1=Cc1cc(Cl)cc(Cl)c1O [10734/B03]	45.1%
O=C1Nc2ccc(I)cc2C1=Cc1cc(Cl)ccc1O [10734/B04]	38.7%

SMILES	Biochem EGFR % Inhibition (P.167)
CCN(CC)c1ccc(C=C2C(=O)Nc3ccc(I)cc32)c(O)c1 [10734/B05]	17.8%
O=C1Nc2ccc(I)cc2C1=Cc1ccc([N+](=O)[O-])cc1 [10734/B06]	54.0%
O=C1Nc2ccc(I)cc2C1=Cc1cc(Br)cc(Br)c1O [10734/B07]	65.5%
O=C1Nc2ccc(I)cc2C1=Cc1cccc(F)c1O [10734/B08]	19.3%
O=C1Nc2ccc(I)cc2C1=Cc1ccc(O)c(Br)c1 [10734/B09]	34.9%
CC(C)(C)c1ccc(C=C2C(=O)Nc3ccc(I)cc32)cc1 [10734/B10]	60.7%
O=C1Nc2ccc(I)cc2C1=Cc1ccc(Br)s1 [10734/B11]	50.9%
CCOc1cccc(C=C2C(=O)Nc3ccc(Br)c(C)c32)c1O [10734/C02]	−6.7%
Cc1c(Br)ccc2c1C(=Cc1cc(Cl)cc(Cl)c1O)C(=O)N2 [10734/C03]	48.6%
Cc1c(Br)ccc2c1C(=Cc1cc(Cl)ccc1O)C(=O)N2 [10734/C04]	38.1%
CCN(CC)c1ccc(C=C2C(=O)Nc3ccc(Br)c(C)c32)c(O)c1 [10734/C05]	9.3%
Cc1c(Br)ccc2c1C(=Cc1ccc([N+](=O)[O-])cc1)C(=O)N2 [10734/C06]	18.4%
Cc1c(Br)ccc2c1C(=Cc1cc(Br)cc(Br)c1O)C(=O)N2 [10734/C07]	41.0%
Cc1c(Br)ccc2c1C(=Cc1cccc(F)c1O)C(=O)N2 [10734/C08]	35.1%
Cc1c(Br)ccc2c1C(=Cc1ccc(O)c(Br)c1)C(=O)N2 [10734/C09]	36.2%
Cc1c(Br)ccc2c1C(=Cc1ccc(C(C)(C)C)cc1)C(=O)N2 [10734/C10]	24.4%
Cc1c(Br)ccc2c1C(=Cc1ccc(Br)s1)C(=O)N2 [10734/C11]	18.0%
CCOc1cccc(C=C2C(=O)Nc3ccc(S(=O)(=O)NC)cc32)c1O [10734/D02]	5.2%
CNS(=O)(=O)c1ccc2c(c1)C(=Cc1cc(Cl)cc(Cl)c1O)C(=O)N2 [10734/D03]	19.6%
CNS(=O)(=O)c1ccc2c(c1)C(=Cc1cc(Cl)ccc1O)C(=O)N2 [10734/D04]	−10.7%

SMILES	Biochem EGFR % Inhibition (P.167)
CCN(CC)c1ccc(C=C2C(=O)Nc3ccc(S(=O)(=O)NC)cc32)c(O)c1 [10734/D05]	−9.6%
CNS(=O)(=O)c1ccc2c(c1)C(=Cc1ccc([N+](=O)[O-])cc1)C(=O)N2 [10734/D06]	1.3%
CNS(=O)(=O)c1ccc2c(c1)C(=Cc1cc(Br)cc(Br)c1O)C(=O)N2 [10734/D07]	51.1%
CNS(=O)(=O)c1ccc2c(c1)C(=Cc1cccc(F)c1O)C(=O)N2 [10734/D08]	−13.7%
CNS(=O)(=O)c1ccc2c(c1)C(=Cc1ccc(O)c(Br)c1)C(=O)N2 [10734/D09]	21.0%
CNS(=O)(=O)c1ccc2c(c1)C(=Cc1ccc(C(C)(C)C)cc1)C(=O)N2 [10734/D10]	−4.4%
CNS(=O)(=O)c1ccc2c(c1)C(=Cc1ccc(Br)s1)C(=O)N2 [10734/D11]	14.6%
CCOc1cccc(C=C2C(=O)Nc3ccc(S(=O)(=O)Nc4ccc(C(F)(F)F)cc4)cc32)c1O [10734/E02]	−10.8%
O=C1Nc2ccc(S(=O)(=O)Nc3ccc(C(F)(F)F)cc3)cc2C1=Cc1cc(Cl)cc(Cl)c1O [10734/E03]	55.0%
O=C1Nc2ccc(S(=O)(=O)Nc3ccc(C(F)(F)F)cc3)cc2C1=Cc1cc(Cl)ccc1O [10734/E04]	−7.8%
CCN(CC)c1ccc(C=C2C(=O)Nc3ccc(S(=O)(=O)Nc4ccc(C(F)(F)F)cc4)cc32)c(O)c1 [10734/E05]	7.9%
O=C1Nc2ccc(S(=O)(=O)Nc3ccc(C(F)(F)F)cc3)cc2C1=Cc1ccc([N+](=O)[O-])cc1 [10734/E06]	6.3%
O=C1Nc2ccc(S(=O)(=O)Nc3ccc(C(F)(F)F)cc3)cc2C1=Cc1cc(Br)cc(Br)c1O [10734/E07]	82.4%
O=C1Nc2ccc(S(=O)(=O)Nc3ccc(C(F)(F)F)cc3)cc2C1=Cc1cccc(F)c1O [10734/E08]	24.2%
O=C1Nc2ccc(S(=O)(=O)Nc3ccc(C(F)(F)F)cc3)cc2C1=Cc1ccc(O)c(Br)c1 [10734/E09]	73.0%
CC(C)(C)c1ccc(C=C2C(=O)Nc3ccc(S(=O)(=O)Nc4ccc(C(F)(F)F)cc4)cc32)cc1 [10734/E10]	−5.0%
O=C1Nc2ccc(S(=O)(=O)Nc3ccc(C(F)(F)F)cc3)cc2C1=Cc1ccc(Br)s1 [10734/E11]	−8.0%
CCOc1cccc(C=C2C(=O)Nc3ccc(S(=O)(=O)N4CCOCC4)cc32)c1O [10734/F02]	0.7%
